Measurements reported in patent US12673052B2, “Combinations for the treatment of cancer” (Exelixis, Inc., priority 2020, dated 2026).

Columns and labels:
CYP2C19 = experiment: CYP/UGT substrate specificity (recombinant Supersomes, chemical inhibitors in human liver microsomes); format: in vitro ADME
Procedure: (§1) Plasma PK of Compound 1 was characterized in rats and beagle dogs. Toxicokinetic (TK) evaluations of oral Compound 1 were evaluated in repeat-dose studies in rats and dogs. Plasma protein binding was determined in mouse, rat, dog, monkey, and human plasma in vitro. Biotransformation and metabolite profiling of Compound 1 were investigated in vitro using mouse, rat, dog, monkey, and human liver microsomal fractions and hepatocytes and in vivo in rats and dogs. P-glycoprotein (P-gp) and breast cancer resistance protein (BCRP) transporter interaction studies, in vitro experiments evaluating cytochrome P450 (CYP) induction and inhibition by Compound 1, and CYP and glucuronosyltransferase (UGT) substrate specificity studies of Compound 1 were also performed.

CYP2B6 = experiment: as above; format: in vitro ADME
Procedure: as §1

CYP3A4 = experiment: as above; format: in vitro ADME
Procedure: as §1

UGT1A9 = target: T1, UGT1A9 (Homo sapiens, UniProt O60656); experiment: as above; format: in vitro ADME
T1 construct: purchased; host or cells: recombinant Supersomes; human liver microsomes
Procedure: as §1

UGT2B7 = target: T2, UGT2B7 (Homo sapiens, UniProt P16662); experiment: as above; format: in vitro ADME
T2 construct: purchased; host or cells: recombinant Supersomes; human liver microsomes
Procedure: as §1

CYP2C9 [1] = experiment: as above; format: in vitro ADME
Procedure: as §1

UGT1A4 = target: T3, UGT1A4 (Homo sapiens, UniProt P22310); experiment: as above; format: in vitro ADME
T3 construct: purchased; host or cells: recombinant Supersomes; human liver microsomes
Procedure: as §1

CYP1A2 [2] = experiment: as above; format: in vitro ADME
Procedure: as §1

UGT1A1 = target: T4, UGT1A1 (Homo sapiens, UniProt P22309); experiment: as above; format: in vitro ADME
T4 construct: purchased; host or cells: recombinant Supersomes; human liver microsomes
Procedure: as §1

CYP2C8 [3] = experiment: as above; format: in vitro ADME
Procedure: as §1

CYP2C8 [4] = experiment: Cytochrome P450 induction (mRNA levels) in fresh primary human hepatocytes; format: in vitro ADME
CYP1A2 [5] = target: CYP1A2 (Homo sapiens, UniProt P05177); experiment: Cytochrome P450 inhibition in vitro; format: in vitro ADME; settings: low CYP inhibition potential
Procedure: as §1

CYP2C9 [6] = target: CYP2C9 (Homo sapiens, UniProt P11712); experiment: Cytochrome P450 inhibition in vitro; format: in vitro ADME
Procedure: as §1

CYP2C8 [7] = target: CYP2C8 (Homo sapiens, UniProt P10632); experiment: Cytochrome P450 inhibition in vitro; format: in vitro ADME
Procedure: as §1

VEGFR2 = VEGFR2 (Homo sapiens, UniProt P35968); experiment: RTK autophosphorylation ELISA, HUVEC stimulated with VEGF165; format: cell-based; set-up: cell lines (PC-3, HUVEC, and A-172) stimulated with ligands to their respective receptors to induce autophosphorylation (MET, VEGFR2, and AXL); endogenous in cells; host or cells: HUVEC; settings: VEGFR2, ligand VEGF165; read-out: Cellular IC50
Procedure: The activity of Compound 1 was evaluated in cell-based assays that assessed the mechanistic effects of the compound in tumor and normal cells. Consistent with the biochemical data, Compound 1 is a potent inhibitor of cellular RTKs as assessed by analysis of receptor autophosphorylation as measured by enzyme-linked immunosorbent assay. Assays were performed using cell lines (PC-3, HUVEC, and A-172) stimulated with ligands to their respective receptors to induce autophosphorylation (MET, VEGFR2, and AXL) or a cell line (293A) transfected with an expression vector encoding the receptor of interest (MER). Inhibition of endogenous phosphorylated MET by Compound 1 in Hs 746T gastric carcinoma cells was also investigated due to the presence of the skip-splice mutation of exon 14 in the MET gene. This MET exon 14 alteration leads to increased MET stability and oncogenic activation, including constitutive MET phosphorylation. Also this mutation is known to occur in 3% of lung adenocarcinoma patients and to be sensitive to MET-targeted therapies (Frampton et al 2015).

[8] = Projection of human PK and steady-state exposure based on one species (rat)
Procedure: The mean plasma t1/2, z values were approximately 9 hours in rats and 4 hours in dogs. Interspecies scaling based on body weight to predict PK parameters in humans could not be performed because dogs (larger species) cleared Compound 1 faster than rats (smaller species). Therefore, the human PK was projected based on one species (rat). […] This apparent clearance value (CL/F) was used to predict steady-state exposure (AUC and average plasma concentration [Cavg]) in humans for the proposed first-in-human (FIH) starting dose for Study Compound 1-001.
The steady-state exposure of Compound 1 in humans for the proposed clinical starting dose of 10 mg daily was projected. At this dose, Compound 1 is projected to yield exposures 54-fold lower than those at the highest non-severely toxic dose (HNSTD) in rats (10 mg/kg qd), the highest dose tested in the GLP 4-week toxicity study. […] Compound 1-related findings at the 10 mg/kg/day dose included bile duct inflammation, hyperplasia and individual hepatocyte necrosis (generally minimal-mild) which were fully reversible following 14 days recovery, as were correlative <2-fold aspartate aminotransferase (AST) and <5-fold alanine aminotransferase (ALT) increases.

[9] = Liver microsomal stability assay; format: in vitro ADME, human; settings: liver microsomes
Procedure: In the liver microsomal stability assay, CLint was 0.601 mL/min/g liver in mouse, 0.563 mL/min/g liver in rat, 0.315 mL/min/g liver in dog, 0.734 mL/min/g liver in monkey, and 0.639 mL/min/g liver in human. In the hepatocyte stability assay, Compound 1 CLint was 0.373 mL/min/g liver in mouse, 0.285 mL/min/g liver in rat, 1.08 mL/min/g liver in dog, 0.533 mL/min/g liver in monkey, and 0.317 mL/min/g liver in human.

[10] = Repeat-dose toxicity studies (7-day range-finding, definitive 28-day, 14-day recovery); format: in vivo, dogs
Procedure: The nonclinical toxicity of Compound 1 was characterized in dose range-finding 7-day and definitive 28-day repeat-dose studies in rats and dogs, and in in vitro bacterial and mammalian genotoxicity bioassays. Compound 1 was also evaluated in definitive neurobehavioral, respiratory and cardiovascular safety pharmacology studies.

T2 sequence (P16662 24-529): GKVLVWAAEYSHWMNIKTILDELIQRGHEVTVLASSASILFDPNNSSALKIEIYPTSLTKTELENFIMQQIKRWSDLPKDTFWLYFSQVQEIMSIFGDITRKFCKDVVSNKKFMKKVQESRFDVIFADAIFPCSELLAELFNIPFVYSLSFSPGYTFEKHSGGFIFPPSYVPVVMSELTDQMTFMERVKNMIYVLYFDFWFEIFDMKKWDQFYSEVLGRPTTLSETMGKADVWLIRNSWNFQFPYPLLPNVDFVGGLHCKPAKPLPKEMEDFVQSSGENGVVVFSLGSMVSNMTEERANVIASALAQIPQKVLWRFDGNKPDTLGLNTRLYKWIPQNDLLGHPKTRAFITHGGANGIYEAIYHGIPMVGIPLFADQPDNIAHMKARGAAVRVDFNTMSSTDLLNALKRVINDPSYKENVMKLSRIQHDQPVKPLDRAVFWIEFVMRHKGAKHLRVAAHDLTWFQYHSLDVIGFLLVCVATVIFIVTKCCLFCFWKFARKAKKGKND
Sequence of CYP1A2 (Homo sapiens, UniProt P05177) (P05177 whole entry): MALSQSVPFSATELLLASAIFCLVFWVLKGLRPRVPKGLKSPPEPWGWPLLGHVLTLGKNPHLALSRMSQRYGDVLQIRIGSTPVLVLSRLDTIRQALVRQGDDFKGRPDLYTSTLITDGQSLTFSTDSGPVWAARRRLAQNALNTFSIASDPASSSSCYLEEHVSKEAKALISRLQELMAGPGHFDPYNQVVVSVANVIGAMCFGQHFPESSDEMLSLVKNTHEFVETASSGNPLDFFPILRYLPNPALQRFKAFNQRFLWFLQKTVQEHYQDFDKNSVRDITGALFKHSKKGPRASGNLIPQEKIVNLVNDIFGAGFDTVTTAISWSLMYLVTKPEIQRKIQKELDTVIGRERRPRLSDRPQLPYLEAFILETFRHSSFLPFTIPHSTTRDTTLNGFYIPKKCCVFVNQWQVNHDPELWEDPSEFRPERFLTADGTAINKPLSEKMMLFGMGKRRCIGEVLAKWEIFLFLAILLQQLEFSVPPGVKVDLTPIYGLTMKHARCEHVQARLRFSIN
T4 sequence (P22309 26-533): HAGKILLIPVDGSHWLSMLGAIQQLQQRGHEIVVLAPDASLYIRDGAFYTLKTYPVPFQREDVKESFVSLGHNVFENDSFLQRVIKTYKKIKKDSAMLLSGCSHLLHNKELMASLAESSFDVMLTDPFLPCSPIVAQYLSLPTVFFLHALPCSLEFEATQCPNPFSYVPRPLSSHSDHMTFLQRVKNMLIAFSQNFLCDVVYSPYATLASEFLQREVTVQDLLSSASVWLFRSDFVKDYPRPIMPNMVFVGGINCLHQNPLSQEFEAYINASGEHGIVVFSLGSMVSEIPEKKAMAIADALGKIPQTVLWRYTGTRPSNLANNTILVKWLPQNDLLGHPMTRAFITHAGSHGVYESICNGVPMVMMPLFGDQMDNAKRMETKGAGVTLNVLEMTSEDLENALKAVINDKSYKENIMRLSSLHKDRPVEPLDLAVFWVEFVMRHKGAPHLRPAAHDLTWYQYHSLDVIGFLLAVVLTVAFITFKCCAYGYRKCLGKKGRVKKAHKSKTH
Sequence of CYP2C8 (Homo sapiens, UniProt P10632) (P10632 whole entry): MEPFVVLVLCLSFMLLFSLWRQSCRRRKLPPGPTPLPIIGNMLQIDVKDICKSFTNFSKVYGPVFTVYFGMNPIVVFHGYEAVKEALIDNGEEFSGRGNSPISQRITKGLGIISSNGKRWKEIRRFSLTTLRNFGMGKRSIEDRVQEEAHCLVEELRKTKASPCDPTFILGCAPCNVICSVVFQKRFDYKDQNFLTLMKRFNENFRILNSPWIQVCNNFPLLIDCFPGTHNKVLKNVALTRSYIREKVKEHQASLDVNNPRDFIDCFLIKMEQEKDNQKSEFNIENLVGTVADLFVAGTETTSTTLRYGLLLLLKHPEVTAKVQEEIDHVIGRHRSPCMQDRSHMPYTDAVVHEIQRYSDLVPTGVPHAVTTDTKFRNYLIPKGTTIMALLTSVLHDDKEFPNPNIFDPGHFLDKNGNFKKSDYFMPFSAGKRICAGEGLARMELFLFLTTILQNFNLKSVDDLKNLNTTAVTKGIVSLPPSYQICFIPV
T1 sequence (O60656 26-530): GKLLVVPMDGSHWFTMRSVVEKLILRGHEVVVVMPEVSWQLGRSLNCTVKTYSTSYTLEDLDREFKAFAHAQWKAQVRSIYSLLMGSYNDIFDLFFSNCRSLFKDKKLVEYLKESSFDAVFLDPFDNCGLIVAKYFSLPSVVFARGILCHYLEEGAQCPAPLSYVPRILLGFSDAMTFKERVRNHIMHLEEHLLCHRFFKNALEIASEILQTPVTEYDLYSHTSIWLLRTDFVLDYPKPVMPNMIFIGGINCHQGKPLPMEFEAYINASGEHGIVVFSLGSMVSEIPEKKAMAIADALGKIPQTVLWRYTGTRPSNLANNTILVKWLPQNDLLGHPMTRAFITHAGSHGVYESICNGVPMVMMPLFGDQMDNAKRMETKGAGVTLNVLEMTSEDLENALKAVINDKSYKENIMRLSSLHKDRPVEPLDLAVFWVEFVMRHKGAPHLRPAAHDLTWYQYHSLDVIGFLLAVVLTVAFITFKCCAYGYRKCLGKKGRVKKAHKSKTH
Sequence of VEGFR2 (P35968 20-1356): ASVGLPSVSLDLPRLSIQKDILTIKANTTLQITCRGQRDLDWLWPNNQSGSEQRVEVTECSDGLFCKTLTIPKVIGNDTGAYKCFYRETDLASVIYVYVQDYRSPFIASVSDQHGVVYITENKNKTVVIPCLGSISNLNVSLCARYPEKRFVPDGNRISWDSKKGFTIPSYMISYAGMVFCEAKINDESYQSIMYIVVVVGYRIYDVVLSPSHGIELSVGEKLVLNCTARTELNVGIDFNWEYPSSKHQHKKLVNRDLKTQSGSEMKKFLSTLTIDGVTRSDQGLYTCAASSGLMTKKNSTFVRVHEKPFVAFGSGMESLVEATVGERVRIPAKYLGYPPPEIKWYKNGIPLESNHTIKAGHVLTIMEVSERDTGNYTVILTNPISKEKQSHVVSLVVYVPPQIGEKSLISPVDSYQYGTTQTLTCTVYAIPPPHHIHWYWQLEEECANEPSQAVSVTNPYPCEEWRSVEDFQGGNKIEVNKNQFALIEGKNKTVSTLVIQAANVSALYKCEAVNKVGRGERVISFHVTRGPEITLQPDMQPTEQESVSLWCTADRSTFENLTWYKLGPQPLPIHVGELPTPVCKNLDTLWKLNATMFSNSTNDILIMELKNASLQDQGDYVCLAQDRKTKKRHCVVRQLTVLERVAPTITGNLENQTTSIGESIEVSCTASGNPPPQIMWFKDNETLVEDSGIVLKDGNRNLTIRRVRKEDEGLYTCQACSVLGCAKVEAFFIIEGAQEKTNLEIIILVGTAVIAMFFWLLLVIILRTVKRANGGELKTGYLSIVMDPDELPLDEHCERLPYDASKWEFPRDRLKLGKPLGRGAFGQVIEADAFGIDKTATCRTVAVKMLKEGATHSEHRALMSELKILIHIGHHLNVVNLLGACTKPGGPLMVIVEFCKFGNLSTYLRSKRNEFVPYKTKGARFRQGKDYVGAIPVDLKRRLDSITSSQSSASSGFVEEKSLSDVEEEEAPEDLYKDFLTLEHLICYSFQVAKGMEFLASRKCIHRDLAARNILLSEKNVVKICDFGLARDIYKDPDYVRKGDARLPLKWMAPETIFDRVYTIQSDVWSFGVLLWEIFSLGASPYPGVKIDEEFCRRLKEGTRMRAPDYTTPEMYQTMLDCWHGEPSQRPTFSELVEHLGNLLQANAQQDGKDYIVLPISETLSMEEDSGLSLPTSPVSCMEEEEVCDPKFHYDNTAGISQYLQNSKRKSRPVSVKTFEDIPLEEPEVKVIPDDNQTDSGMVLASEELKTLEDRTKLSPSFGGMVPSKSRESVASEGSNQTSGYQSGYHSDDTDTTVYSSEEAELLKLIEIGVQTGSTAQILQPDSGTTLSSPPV
Sequence of CYP2C9 (Homo sapiens, UniProt P11712) (P11712 whole entry): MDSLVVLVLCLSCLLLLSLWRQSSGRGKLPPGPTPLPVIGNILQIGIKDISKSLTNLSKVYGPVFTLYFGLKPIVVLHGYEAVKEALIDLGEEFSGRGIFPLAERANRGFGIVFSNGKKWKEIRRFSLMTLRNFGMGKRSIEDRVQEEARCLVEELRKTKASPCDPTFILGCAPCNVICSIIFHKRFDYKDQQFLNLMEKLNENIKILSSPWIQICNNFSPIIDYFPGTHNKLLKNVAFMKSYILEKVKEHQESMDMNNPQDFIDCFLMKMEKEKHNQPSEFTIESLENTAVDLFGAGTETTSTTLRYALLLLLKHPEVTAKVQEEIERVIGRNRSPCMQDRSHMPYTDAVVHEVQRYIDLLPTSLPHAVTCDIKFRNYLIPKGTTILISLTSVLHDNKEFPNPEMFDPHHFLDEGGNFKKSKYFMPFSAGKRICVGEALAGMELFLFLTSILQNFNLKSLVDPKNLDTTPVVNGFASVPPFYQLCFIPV
T3 sequence (P22310 29-534): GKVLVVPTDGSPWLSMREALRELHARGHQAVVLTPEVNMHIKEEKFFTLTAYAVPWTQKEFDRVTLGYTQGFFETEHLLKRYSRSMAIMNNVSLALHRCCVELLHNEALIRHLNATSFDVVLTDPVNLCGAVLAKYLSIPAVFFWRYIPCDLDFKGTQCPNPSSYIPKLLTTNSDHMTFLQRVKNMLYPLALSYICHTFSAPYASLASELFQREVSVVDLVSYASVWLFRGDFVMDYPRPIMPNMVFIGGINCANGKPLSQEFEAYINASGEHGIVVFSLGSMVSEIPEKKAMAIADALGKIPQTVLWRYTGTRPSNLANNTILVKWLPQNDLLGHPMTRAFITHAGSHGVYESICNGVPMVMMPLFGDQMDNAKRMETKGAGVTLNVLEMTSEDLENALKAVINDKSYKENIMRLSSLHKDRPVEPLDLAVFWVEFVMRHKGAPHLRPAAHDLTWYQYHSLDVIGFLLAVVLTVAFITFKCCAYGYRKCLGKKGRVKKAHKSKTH

## CNC(=O)c1cc2c(Oc3ccc(NC(=O)C4(C(=O)Nc5ccc(F)cc5)CC4)cc3)ccnc2cc1OC [Compound 1, 1-N′-(4-Fluorophenvl)-1-N-[4-[7-methoxy-6-(methylcarbamovl)quinolin-4-yl]oxyphenyl]cyclopropane-1,1-dicarboxamide]
CYP2C19
  substrate of enzyme: not to be a substrate
CYP2B6
  substrate of enzyme: not to be a substrate
CYP3A4
  substrate of enzyme: sensitive substrate
UGT1A9
  substrate of enzyme: not to be a substrate
UGT2B7
  substrate of enzyme: not to be a substrate
CYP2C9 [1]
  substrate of enzyme: weaker substrate
UGT1A4
  role in Compound 1 metabolism: may play a minor role
CYP1A2 [2]
  substrate of enzyme: not to be a substrate
UGT1A1
  substrate of enzyme: not to be a substrate
CYP2C8 [3]
  role in the metabolism of Compound 1: only a minor role
CYP2C8 [4]; human, fresh primary human hepatocytes, mRNA induction, read-out: half-maximal effective concentration (EC50)
  EC50: 2.01 µM
CYP2C8 [4]; mRNA, 0.1-100 μM
  maximal induction effect (Emax): 7 fold
CYP1A2 [5]
  IC50: > 33 µM
CYP2C9 [6]
  Ki: 7.11 µM
CYP2C8 [7]
  Ki: 1.27 µM
VEGFR2
  IC50: 0.0015 µM
[8]; assuming rat CL=23.4 mL/hr/kg and F=70%
  projected apparent CL (CL/F) after oral administration in human: 0.557 mL/min/kg
[8]; for a 70-kg human
  projected apparent CL (CL/F) after oral administration in human: 2338 mL/h
[8]; proposed clinical starting dose of 10 mg daily vs 10 mg/kg qd in rats
  projected human exposure lower than exposure at HNSTD in rats: 54 fold
[9]
  CLint: 0.639 mL/min/g liver
[10]; 14-day non-treatment recovery period
  reversibility of adverse findings: partially or completely reversible
[10]; both sexes, dog, plasma, oral, 18 mg/kg/day, daily dosing for 28 days
  Cmax at 28 days: ~7 µM
[10]; daily for 4 weeks
  ophthalmic findings: No adverse ophthalmic findings
[10]; male and female dogs, daily dosing 28 days, 18 mg/kg/day
  QTc interval: no QTc interval prolongation
[10]; repeat-dose
  cholesterol: increased cholesterol
  dose-related clinical signs: hypoactivity, vomitus, and fecal changes
  reticulocytes: transient decreases in reticulocytes
[10]; terminal sacrifice males >6 mg/kg/day, considered non-adverse
  nasal turbinate histologic findings: increased incidences and severities of mixed cell inflammation and osteolysis/osteogenesis
